# Source: publication PMC4130196, “Angiotensin I-Converting Enzyme Inhibitor Derived from Cross-Linked Oyster Protein” (BioMed Research International, 2014)
# Legend:
# [1] = test system: spontaneously hypertensive rats (SHR); assay: Antihypertensive activity in vivo: SBP of SHR by tail-cuff method after intragastric administration; set-up: species or system rat
# Description: Spontaneously hypertensive rats (SHR) with systolic blood pressure (SBP) between 170 and 190 mmHg and original strain Wistar Kyoto rats (WKR) with SBP between 100 and 125 mmHg were purchased from Harlan, USA (Indianapolis, USA). All rats were treated in accordance with Kyung Hee University guidelines for the care and use of laboratory animals. The animals were individually housed in stainless steel cages and adapted to 23 ± 1°C and humidity of 55 ± 5% under a 12 h light-dark cycle. The 12-week-old rats were fed a pelletized commercial chow diet for a period of 1 week after arrival and then randomly divided into five groups: untreated SHR control group (n = 3); normal WKR control group (n = 3); oyster hydrolysate-treated SHR group (100 mg/kg body weight, n = 3); sardine hydrolysate-treated SHR group (positive control, 100 mg/kg body weight, n = 3); and Captopril-treated SHR group (positive control, ACE inhibitor; 8 mg/kg body weight, n = 3). After intragastric administration of the samples using Sonde, SBP of the rats was measured by a Coda noninvasive blood pressure system (Kent Scientific Corporation, Baltimore, USA) using the tail-cuff method after prewarming for 30 min in an environmental chamber of 32°C at 0, 3, 6, 9, 12, and 24 h. Subsequent measurement of blood pressure was expressed as a percentage of that at the initial time.
# in vitro = assay type: cell-based; conditions: human
# Description: The ACE inhibitory activities of the synthetic peptides were measured, and the cell toxicity was evaluated by cell viability testing on the hepatocyte cell line HepG2. HepG2 cells were cultured in MEM medium containing 10% fetal bovine serum. Ninety-six well plates containing 1 × 10^4 cells per well were incubated at 35°C for 24 h under 95% humidity and 5% CO2. After incubation, the synthetic peptides were added (final concentration, 200 μg/mL) and cells were incubated under the same conditions for an additional 24 h. Cell growth was assessed with the CellTiter 96 Aqueous One Solution Cell Proliferation Assay kit (Promega, Madison, WI, USA) and absorbance was determined with a microplate reader (Perkin Elmer 1420, VICTOR X Multilabel Plate readers, Waltham, MA, USA) at 490 nm. Cell viability was calculated as the percentage of absorbance of the synthetic peptide-treated groups compared with that of the untreated group (100% viability).
# [2] = target: Angiotensin I-converting enzyme (UniProt P12822)
# UniProt P12822, sequence (P12822 34-1260): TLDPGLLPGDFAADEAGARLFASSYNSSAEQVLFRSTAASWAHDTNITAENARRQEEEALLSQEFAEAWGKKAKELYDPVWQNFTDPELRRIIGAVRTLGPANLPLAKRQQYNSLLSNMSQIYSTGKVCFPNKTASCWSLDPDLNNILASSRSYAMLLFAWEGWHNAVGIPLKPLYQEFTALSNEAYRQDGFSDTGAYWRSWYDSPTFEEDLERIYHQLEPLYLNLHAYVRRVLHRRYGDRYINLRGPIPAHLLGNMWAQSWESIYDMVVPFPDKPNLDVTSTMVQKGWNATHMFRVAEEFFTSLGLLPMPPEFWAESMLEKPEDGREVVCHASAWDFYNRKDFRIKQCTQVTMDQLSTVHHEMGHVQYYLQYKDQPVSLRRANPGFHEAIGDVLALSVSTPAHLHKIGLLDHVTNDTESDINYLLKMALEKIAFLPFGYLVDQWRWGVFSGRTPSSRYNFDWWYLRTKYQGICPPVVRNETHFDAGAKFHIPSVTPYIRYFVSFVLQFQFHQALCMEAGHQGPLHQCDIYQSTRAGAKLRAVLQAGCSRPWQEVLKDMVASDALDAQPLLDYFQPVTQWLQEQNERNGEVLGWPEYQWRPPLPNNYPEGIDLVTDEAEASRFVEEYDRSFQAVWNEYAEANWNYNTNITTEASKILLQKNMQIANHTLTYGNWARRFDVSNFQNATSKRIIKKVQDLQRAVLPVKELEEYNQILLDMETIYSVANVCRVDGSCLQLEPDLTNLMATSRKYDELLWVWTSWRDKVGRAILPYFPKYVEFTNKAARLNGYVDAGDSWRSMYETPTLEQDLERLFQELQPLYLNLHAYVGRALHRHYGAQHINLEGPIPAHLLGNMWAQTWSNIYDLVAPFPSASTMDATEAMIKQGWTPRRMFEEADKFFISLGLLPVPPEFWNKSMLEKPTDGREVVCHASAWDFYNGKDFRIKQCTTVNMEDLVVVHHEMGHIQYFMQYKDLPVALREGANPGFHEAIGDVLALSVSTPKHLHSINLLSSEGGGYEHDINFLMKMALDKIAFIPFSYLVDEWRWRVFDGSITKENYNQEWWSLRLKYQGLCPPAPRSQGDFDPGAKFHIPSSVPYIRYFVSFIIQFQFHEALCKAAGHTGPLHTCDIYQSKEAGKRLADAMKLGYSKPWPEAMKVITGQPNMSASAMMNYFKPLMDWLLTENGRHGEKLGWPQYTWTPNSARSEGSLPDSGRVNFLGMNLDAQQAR
Compound,"IC50 of ACE inhibition (enzyme activity: hippuric acid released from HHL, by HPLC) [2] [µM]","viability at 24 h, 200 μg/mL (in vitro) [%]",other results
C[C@H](CS)C(=O)N1CCC[C@H]1C(=O)O [Captopril],–,–,"SBP at maximum decrease, as % of the initial SBP ([1]; 8 mg/kg intragastric, 12 h after administration): 85.3 ± 4.5%; effect on SBP of SHR (in words) ([1]; oral administration, oyster and sardine hydrolysate 100 mg/kg, Captopril 8 mg/kg): not significant"
NC(=O)C[C@H](NC(=O)[C@H](Cc1ccc(O)cc1)NC(=O)[C@@H](N)Cc1ccccc1)C(=O)O [FYN],–,110 ± 3,–
NCCCC[C@H](N)C(=O)N[C@@H](Cc1ccc(O)cc1)C(=O)O [KY],–,118 ± 7,–
C[C@H](NC(=O)[C@@H](N)[C@@H](C)O)C(=O)N[C@@H](Cc1ccc(O)cc1)C(=O)O [TAY],–,105 ± 1.9,–
CC(C)[C@H](N)C(=O)N[C@@H](CCCCN)C(=O)O [VK],–,118 ± 15.1,–

# Continued, in another order:
"IC50 of ACE inhibition (enzyme activity: hippuric acid released from HHL, by HPLC) [2] [µM]",Compound,"viability at 24 h, 200 μg/mL (in vitro) [%]",other results
68.2,FYN (peptide),–,–
51.5,KY (peptide),–,–
16.7,TAY (peptide),–,–
29,VK (peptide),–,–
93.9,YA (peptide),–,–
